Measured values published in PubChem BioAssay AID652062 (Broad Institute, 2013).
Where “and” joins values, the source holds several entries; their conditions need not be identical. Equal values may be shown once.

Test system: HeLa-AD8 Env / CEM-CCR5 cell fusion, luciferase
Experiment: inhibitors of clade B AD8 Env fusion, dose response, cell-based, cherry-pick (AID 652062)

`COC(=O)C1(C(=O)OC)C[C@H](c2ccc(OC)cc2)N(Cc2ccccc2OC)[C@@H]1c1cccs1` was tested, and the AC50 was 2.49 µM and 11.3 µM.

With `C[C@H](CO)N1C[C@H](C)[C@H](CN(C)S(=O)(=O)c2ccccc2)Oc2ncc(/C=C/c3ccccc3)cc2C1=O` the AC50 was 23.8 µM and 3.07 µM.

Molecule `O=C(C[C@H]1C[C@H]2c3cc(NC(=O)c4ccc5c(c4)OCO5)ccc3O[C@H]2[C@H](CO)O1)NCc1ccc(Oc2ccccc2)cc1` has an AC50 of 15.1 µM.
